Test results from ChEMBL document CHEMBL4145445, “Design, synthesis and biological assessment of new thiazolylhydrazine derivatives as selective and reversible hMAO-A inhibitors” (Eur J Med Chem, 2018).
Each block holds one compound with its values, some of them ahead of it.

Legend:
[1] = molecular target: T1, Amine oxidase [flavin-containing] B (Homo sapiens, UniProt P27338); assay: Inhibition of human MAO-B using tyramine hydrochloride as substrate after 30 mins by Amplex Red reagent based horseradish peroxidase enzyme-coupled fluorescence assay
T1 sequence (P27338 whole entry): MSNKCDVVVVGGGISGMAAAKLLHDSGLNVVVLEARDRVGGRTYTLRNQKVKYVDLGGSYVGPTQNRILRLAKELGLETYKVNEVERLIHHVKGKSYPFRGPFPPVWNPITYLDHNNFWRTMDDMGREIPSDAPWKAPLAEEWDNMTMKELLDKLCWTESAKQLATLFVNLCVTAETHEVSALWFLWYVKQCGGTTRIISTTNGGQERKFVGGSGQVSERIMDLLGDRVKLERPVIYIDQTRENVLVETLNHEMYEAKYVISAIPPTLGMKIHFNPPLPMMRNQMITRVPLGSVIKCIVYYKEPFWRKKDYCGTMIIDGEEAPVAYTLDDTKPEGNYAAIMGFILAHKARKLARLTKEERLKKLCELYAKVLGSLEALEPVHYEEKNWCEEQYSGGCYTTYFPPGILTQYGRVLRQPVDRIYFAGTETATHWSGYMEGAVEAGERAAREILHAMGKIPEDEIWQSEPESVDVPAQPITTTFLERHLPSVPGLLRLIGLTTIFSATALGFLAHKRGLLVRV

[2] = molecular target: T2, Amine oxidase [flavin-containing] A (Homo sapiens, UniProt P21397); assay: Inhibition of human MAO-A using tyramine hydrochloride as substrate after 30 mins by Amplex Red reagent based horseradish peroxidase enzyme-coupled fluorescence assay
T2 sequence (P21397 whole entry): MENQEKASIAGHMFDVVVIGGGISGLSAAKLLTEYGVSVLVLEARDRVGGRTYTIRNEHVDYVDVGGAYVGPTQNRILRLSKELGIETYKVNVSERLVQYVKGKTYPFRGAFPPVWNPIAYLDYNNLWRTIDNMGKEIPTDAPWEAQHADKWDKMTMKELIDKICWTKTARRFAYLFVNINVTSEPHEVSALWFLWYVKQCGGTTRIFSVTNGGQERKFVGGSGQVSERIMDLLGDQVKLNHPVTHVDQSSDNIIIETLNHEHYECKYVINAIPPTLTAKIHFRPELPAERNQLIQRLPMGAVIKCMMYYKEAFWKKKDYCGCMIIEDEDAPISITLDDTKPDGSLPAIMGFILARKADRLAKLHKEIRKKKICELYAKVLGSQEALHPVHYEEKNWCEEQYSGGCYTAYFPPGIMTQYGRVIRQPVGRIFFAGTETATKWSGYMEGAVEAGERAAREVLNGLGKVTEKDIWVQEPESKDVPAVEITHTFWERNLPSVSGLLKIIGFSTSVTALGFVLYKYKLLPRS

[3] = species: Homo sapiens; assay: Selectivity index, ratio of IC50 for human MAO-B to IC50 for human MAO-A
[4] = molecular target: T2, Amine oxidase [flavin-containing] A; assay: Inhibition of human MAO-A at 10^-4 to 10^-3 M using tyramine hydrochloride as substrate after 30 mins by Amplex Red reagent based horseradish peroxidase enzyme-coupled fluorescence assay relative to control; conditions: 0.5 h
[5] = molecular target: T1, Amine oxidase [flavin-containing] B; assay: Inhibition of human MAO-B at 10^-4 to 10^-3 M using tyramine hydrochloride as substrate after 30 mins by Amplex Red reagent based horseradish peroxidase enzyme-coupled fluorescence assay relative to control; conditions: 0.5 h
[6] = test system: Salmonella typhimurium; assay: Genotoxicity in Salmonella typhimurium TA98 assessed as increase in revertant colonies at 0.156 mg/ml in presence of Sprague-Dawley rat liver S9 fraction by Ames test relative to basal level; assay type: toxicity, organism-based; conditions: salmonella enterica subsp. enterica serovar typhimurium
[7] = test system: Salmonella typhimurium; assay: Genotoxicity in Salmonella typhimurium TA100 assessed as increase in revertant colonies at 0.3125 mg/ml in absence of Sprague-Dawley rat liver S9 fraction by Ames test relative to basal level; assay type: toxicity, organism-based; conditions: salmonella enterica subsp. enterica serovar typhimurium
[8] = test system: Salmonella typhimurium; assay: Genotoxicity in Salmonella typhimurium TA98 assessed as increase in revertant colonies at 0.625 mg/ml in absence of Sprague-Dawley rat liver S9 fraction by Ames test relative to basal level; assay type: toxicity, organism-based; conditions: salmonella enterica subsp. enterica serovar typhimurium
[9] = test system: Salmonella typhimurium; assay: Genotoxicity in Salmonella typhimurium TA100 assessed as increase in revertant colonies at 2.5 mg/ml in presence of Sprague-Dawley rat liver S9 fraction by Ames test relative to basal level; assay type: toxicity, organism-based; conditions: salmonella enterica subsp. enterica serovar typhimurium
[10] = test system: Salmonella typhimurium; assay: Genotoxicity in Salmonella typhimurium TA98 assessed as increase in revertant colonies at 5 mg/ml in presence of Sprague-Dawley rat liver S9 fraction by Ames test relative to basal level; assay type: toxicity, organism-based; conditions: salmonella enterica subsp. enterica serovar typhimurium
[11] = test system: Salmonella typhimurium; assay: Genotoxicity in Salmonella typhimurium TA98 assessed as increase in revertant colonies at 1.25 mg/ml in absence of Sprague-Dawley rat liver S9 fraction by Ames test relative to basal level; assay type: toxicity, organism-based; conditions: salmonella enterica subsp. enterica serovar typhimurium
[12] = test system: Salmonella typhimurium; assay: Genotoxicity in Salmonella typhimurium TA100 assessed as increase in revertant colonies at 0.625 mg/ml in absence of Sprague-Dawley rat liver S9 fraction by Ames test relative to basal level; assay type: toxicity, organism-based; conditions: salmonella enterica subsp. enterica serovar typhimurium
[13] = test system: Salmonella typhimurium; assay: Genotoxicity in Salmonella typhimurium TA100 assessed as increase in revertant colonies at 2.5 mg/ml in absence of Sprague-Dawley rat liver S9 fraction by Ames test relative to basal level; assay type: toxicity, organism-based; conditions: salmonella enterica subsp. enterica serovar typhimurium
[14] = test system: Salmonella typhimurium; assay: Genotoxicity in Salmonella typhimurium TA100 assessed as increase in revertant colonies at 0.156 mg/ml in absence of Sprague-Dawley rat liver S9 fraction by Ames test relative to basal level; assay type: toxicity, organism-based; conditions: salmonella enterica subsp. enterica serovar typhimurium
[15] = test system: Salmonella typhimurium; assay: Genotoxicity in Salmonella typhimurium TA98 assessed as increase in revertant colonies at 0.3125 mg/ml in absence of Sprague-Dawley rat liver S9 fraction by Ames test relative to basal level; assay type: toxicity, organism-based; conditions: salmonella enterica subsp. enterica serovar typhimurium
[16] = test system: Salmonella typhimurium; assay: Genotoxicity in Salmonella typhimurium TA100 assessed as increase in revertant colonies at 5 mg/ml in absence of Sprague-Dawley rat liver S9 fraction by Ames test relative to basal level; assay type: toxicity, organism-based; conditions: salmonella enterica subsp. enterica serovar typhimurium
[17] = test system: NIH3T3; assay: Cytotoxicity against mouse NIH/3T3 cells by MTT assay; assay type: cell-based
[18] = test system: Salmonella typhimurium; assay: Genotoxicity in Salmonella typhimurium TA100 assessed as increase in revertant colonies at 1.25 mg/ml in absence of Sprague-Dawley rat liver S9 fraction by Ames test relative to basal level; assay type: toxicity, organism-based; conditions: salmonella enterica subsp. enterica serovar typhimurium
[19] = test system: Salmonella typhimurium; assay: Genotoxicity in Salmonella typhimurium TA98 assessed as increase in revertant colonies at 5 mg/ml in absence of Sprague-Dawley rat liver S9 fraction by Ames test relative to basal level; assay type: toxicity, organism-based; conditions: salmonella enterica subsp. enterica serovar typhimurium
[20] = test system: Salmonella typhimurium; assay: Genotoxicity in Salmonella typhimurium TA100 assessed as increase in revertant colonies at 0.625 mg/ml in presence of Sprague-Dawley rat liver S9 fraction by Ames test relative to basal level; assay type: toxicity, organism-based; conditions: salmonella enterica subsp. enterica serovar typhimurium
[21] = test system: Salmonella typhimurium; assay: Genotoxicity in Salmonella typhimurium TA100 assessed as increase in revertant colonies at 5 mg/ml in presence of Sprague-Dawley rat liver S9 fraction by Ames test relative to basal level; assay type: toxicity, organism-based; conditions: salmonella enterica subsp. enterica serovar typhimurium
[22] = test system: Salmonella typhimurium; assay: Genotoxicity in Salmonella typhimurium TA100 assessed as increase in revertant colonies at 0.3125 mg/ml in presence of Sprague-Dawley rat liver S9 fraction by Ames test relative to basal level; assay type: toxicity, organism-based; conditions: salmonella enterica subsp. enterica serovar typhimurium
[23] = test system: Salmonella typhimurium; assay: Genotoxicity in Salmonella typhimurium TA98 assessed as increase in revertant colonies at 2.5 mg/ml in presence of Sprague-Dawley rat liver S9 fraction by Ames test relative to basal level; assay type: toxicity, organism-based; conditions: salmonella enterica subsp. enterica serovar typhimurium
[24] = molecular target: T2, Amine oxidase [flavin-containing] A; assay: Reversible-competitive inhibition of human MAO-A using varying levels of tyramine as substrate after 30 mins by Lineweaver-Burk plot
[25] = test system: Salmonella typhimurium; assay: Genotoxicity in Salmonella typhimurium TA98 assessed as increase in revertant colonies at 0.625 mg/ml in presence of Sprague-Dawley rat liver S9 fraction by Ames test relative to basal level; assay type: toxicity, organism-based; conditions: salmonella enterica subsp. enterica serovar typhimurium
[26] = test system: Salmonella typhimurium; assay: Genotoxicity in Salmonella typhimurium TA98 assessed as increase in revertant colonies at 0.3125 mg/ml in presence of Sprague-Dawley rat liver S9 fraction by Ames test relative to basal level; assay type: toxicity, organism-based; conditions: salmonella enterica subsp. enterica serovar typhimurium
[27] = test system: Salmonella typhimurium; assay: Genotoxicity in Salmonella typhimurium TA100 assessed as increase in revertant colonies at 1.25 mg/ml in presence of Sprague-Dawley rat liver S9 fraction by Ames test relative to basal level; assay type: toxicity, organism-based; conditions: salmonella enterica subsp. enterica serovar typhimurium
[28] = test system: Salmonella typhimurium; assay: Genotoxicity in Salmonella typhimurium TA100 assessed as increase in revertant colonies at 0.156 mg/ml in presence of Sprague-Dawley rat liver S9 fraction by Ames test relative to basal level; assay type: toxicity, organism-based; conditions: salmonella enterica subsp. enterica serovar typhimurium
[29] = test system: Salmonella typhimurium; assay: Genotoxicity in Salmonella typhimurium TA98 assessed as increase in revertant colonies at 1.25 mg/ml in presence of Sprague-Dawley rat liver S9 fraction by Ames test relative to basal level; assay type: toxicity, organism-based; conditions: salmonella enterica subsp. enterica serovar typhimurium
[30] = test system: Salmonella typhimurium; assay: Genotoxicity in Salmonella typhimurium TA98 assessed as increase in revertant colonies at 0.156 mg/ml in absence of Sprague-Dawley rat liver S9 fraction by Ames test relative to basal level; assay type: toxicity, organism-based; conditions: salmonella enterica subsp. enterica serovar typhimurium
[31] = test system: Salmonella typhimurium; assay: Genotoxicity in Salmonella typhimurium TA98 assessed as increase in revertant colonies at 2.5 mg/ml in absence of Sprague-Dawley rat liver S9 fraction by Ames test relative to basal level; assay type: toxicity, organism-based; conditions: salmonella enterica subsp. enterica serovar typhimurium

- IC50 [1]: > 100 µM
- IC50 [2]: 20 µM
- Ratio IC50 [3]: > 4.99
- inhibition (INH) [4]: > 50%
SMILES: Cc1ccc(-c2csc(N/N=C/c3ccc(N4CCCC4)cc3)n2)cc1

- IC50 [1]: 558 µM
- IC50 [2]: 10.6 µM
- inhibition (INH) [5]: > 50%
- Ratio IC50 [3]: 52.8
- inhibition (INH) [4]: > 50%
SMILES: Clc1ccc(-c2csc(N/N=C/c3ccc(N4CCOCC4)cc3)n2)cc1

- IC50 [1]: 761 µM
- IC50 [2]: 45.1 µM
- inhibition (INH) [5]: > 50%
- Ratio IC50 [3]: 16.9
- inhibition (INH) [4]: > 50%
SMILES: Clc1ccc(-c2csc(N/N=C/c3ccc(N4CCCC4)cc3)n2)cc1

- IC50 [1]: > 100 µM
- IC50 [2]: 14.6 µM
- Ratio IC50 [3]: > 6.84
- inhibition (INH) [4]: > 50%
SMILES: Brc1ccc(-c2csc(N/N=C/c3ccc(N4CCOCC4)cc3)n2)cc1

- IC50 [1]: > 1000 µM
- IC50 [2]: 11.4 µM
- Ratio IC50 [3]: > 87.8
- inhibition (INH) [4]: > 50%
SMILES: C(=N\Nc1nc(-c2ccccc2)cs1)/c1ccc(N2CCOCC2)cc1

- IC50 [1]: 14.6 µM
- IC50 [2]: 0.012 µM
- inhibition (INH) [5]: > 50%
- Ratio IC50 [3]: 1210
- inhibition (INH) [4]: > 50%
- Ki [24]: 0.0066 µM
SMILES: Fc1ccc(-c2csc(N/N=C/c3ccc(N4CCOCC4)cc3)n2)cc1
- fold change (FC) [6]: 4.38
- fold change (FC) [7]: 0.56
- fold change (FC) [8]: 1.59
- fold change (FC) [9]: 0.96
- fold change (FC) [10]: 5.81
- fold change (FC) [11]: 2
- fold change (FC) [12]: 1.11
- fold change (FC) [13]: 0.83
- fold change (FC) [14]: 1.11
- fold change (FC) [15]: 2.28
- fold change (FC) [16]: 1.17
- IC50 [17]: > 1000 µM
- fold change (FC) [18]: 0.72
- fold change (FC) [19]: 1.66
- fold change (FC) [20]: 1.12
- fold change (FC) [21]: 1.28
- fold change (FC) [22]: 1.01
- fold change (FC) [23]: 7.95
- fold change (FC) [25]: 6.97
- fold change (FC) [26]: 6.07
- fold change (FC) [27]: 0.96
- fold change (FC) [28]: 1.07
- fold change (FC) [29]: 7.86
- fold change (FC) [30]: 1.66
- fold change (FC) [31]: 1.45

- IC50 [1]: 131 µM
- IC50 [2]: 103 µM
- inhibition (INH) [5]: > 50%
- Ratio IC50 [3]: 1.26
- inhibition (INH) [4]: > 50%
SMILES: Clc1ccc(-c2csc(N/N=C/c3ccc(N4CCCC4)cc3)n2)c(Cl)c1

- IC50 [1]: 42.9 µM
- IC50 [2]: 54 µM
- inhibition (INH) [5]: > 50%
- Ratio IC50 [3]: 0.795
- inhibition (INH) [4]: > 50%
SMILES: N#Cc1ccc(-c2csc(N/N=C/c3ccc(N4CCOCC4)cc3)n2)cc1
